Earlier results in EP0502042B1, “PHARMACEUTICAL COMPOSITIONS” (PHARMACIA S.p.A., priority 1989, dated 1991).

Tested on: mice

## CN1C(=O)C(O)N=C(c2ccccc2)c2cc(Cl)ccc21 (stereo not shown) [Temazepam]
  oral LD 50: ~1000 mg/kg
